From ChEMBL document CHEMBL4393695, “Thiazole orange - Spermine conjugate: A potent human telomerase inhibitor comparable to BRACO-19” (Eur J Med Chem, 2019)
Active and inactive are the calls of the source. The calls are words filed in the database; no cut-off is given here.

Key:
[1] = molecular target: Telomerase reverse transcriptase (Homo sapiens) (UniProt O14746); conditions: HeLa, Lysate, 10 to 100 uM
Description: Inhibition of telomerase activity in human HeLa cell lysate at 10 to 100 uM in presence of [32P]-labeled template primer by TRAP assay

HeLa [2] = conditions: Homo sapiens, Lysate, 10 to 100 uM
Description: Inhibition of DNA polymerase activity in human HeLa cell lysate at 10 to 100 uM in presence of [32P]-labeled template primer by TRAP assay

Quadruplex DNA [3] = test: Binding affinity to G-quadruplex G2 DNA (unknown origin) assessed as increase in deltaTm at compound to DNA ratio of 10:1 by fluorescence thermal denaturation analysis; assay type: nucleic-acid assay
[4] = molecular target: Telomerase reverse transcriptase (Homo sapiens) (UniProt O14746); test: Inhibition of telomerase activity in human HeLa cell lysate at 6.25 uM in presence of [32P]-labeled template primer by TRAP assay; assay type: subcellular
HeLa [5] = test: Inhibition of DNA polymerase activity in human HeLa cell lysate at 6.25 uM in presence of [32P]-labeled template primer by TRAP assay; assay type: subcellular
Quadruplex DNA [6] = test: Binding affinity to G-quadruplex G1 DNA (unknown origin) assessed as melting temperature at compound to DNA ratio of 4:1 in presence of 150 mM Na+ by circular dichroism thermal denaturation analysis (reference value: 57.4 degC); assay type: nucleic-acid assay
Quadruplex DNA [7] = test: Binding affinity to G-quadruplex G1 DNA (unknown origin) assessed as melting temperature at compound to DNA ratio of 4:1 in presence of 100 mM K+ by circular dichroism thermal denaturation analysis (Rvb= 52.6 degC); assay type: nucleic-acid assay
HeLa [8] = test: Inhibition of DNA polymerase activity in human HeLa cell lysate at 0.625 to 10 uM in presence of [32P]-labeled template primer by TRAP assay; assay type: subcellular
[9] = molecular target: Telomerase reverse transcriptase (Homo sapiens) (UniProt O14746); test: Inhibition of telomerase activity in human HeLa cell lysate in presence of [32P]-labeled template primer by TRAP assay; assay type: subcellular
[10] = Ratio of Kd for human G-quadruplex G1 DNA to Kd for 17 mer duplex D1 DNA (unknown origin) by flourimetric titration analysis
dsDNA = test: Binding affinity to 17 mer duplex D1 DNA (unknown origin) assessed as equilibrium dissociation constant at 0.5 uM incubated for 30 mins under dark condition by fluorometric titration analysis; assay type: nucleic-acid assay
Quadruplex DNA [11] = test: Binding affinity to G-quadruplex G2 DNA (unknown origin) assessed as change in melting temperature at compound to DNA ratio of 7:1 by fluorescence thermal denaturation analysis; assay type: nucleic-acid assay
Quadruplex DNA [12] = test: Binding affinity to human G-quadruplex G1 DNA assessed as increase in fluorescence at 0.5 uM incubated for 30 mins in dark by fluorescence titration analysis relative to control; assay type: nucleic-acid assay
Quadruplex DNA [13] = test: Binding affinity to human G-quadruplex G1 DNA assessed as equilibrium dissociation constant at 0.5 uM incubated for 30 mins under dark condition by fluorometric titration analysis; assay type: nucleic-acid assay
[14] = molecular target: Telomerase reverse transcriptase (Homo sapiens) (UniProt O14746); test: Inhibition of telomerase activity in human HeLa cell lysate at 10 uM in presence of [32P]-labeled template primer by TRAP assay; assay type: subcellular
HeLa [15] = test: Inhibition of DNA polymerase activity in human HeLa cell lysate at <10 uM in presence of [32P]-labeled template primer by TRAP assay; assay type: subcellular
[16] = molecular target: Telomerase reverse transcriptase (Homo sapiens) (UniProt O14746); test: Inhibition of telomerase activity in human HeLa cell lysate at <10 uM in presence of [32P]-labeled template primer by TRAP assay; assay type: subcellular
[17] = molecular target: Telomerase reverse transcriptase (Homo sapiens) (UniProt O14746); test: Inhibition of telomerase activity in human HeLa cell lysate at 0.625 uM in presence of [32P]-labeled template primer by TRAP assay; assay type: subcellular
HeLa [18] = test: Inhibition of DNA polymerase activity in human HeLa cell lysate at 50 uM in presence of [32P]-labeled template primer by TRAP assay; assay type: subcellular
[19] = molecular target: Telomerase reverse transcriptase (Homo sapiens) (UniProt O14746); conditions: HeLa, Lysate, 50 uM
Description: Inhibition of telomerase activity in human HeLa cell lysate at 50 uM in presence of [32P]-labeled template primer by TRAP assay

HeLa [20] = test: Inhibition of DNA polymerase activity in human HeLa cell lysate at 10 uM in presence of [32P]-labeled template primer by TRAP assay; assay type: subcellular
Quadruplex DNA [21] = test: Ratio of thiazole orange Kd to compound Kd for human G-quadruplex G1 DNA at 0.5 uM incubated for 30 mins in dark by fluorimetric titration analysis; assay type: nucleic-acid assay
HeLa [22] = test: Inhibition of DNA polymerase activity in human HeLa cell lysate at 0.156 to 2.5 uM in presence of [32P]-labeled template primer by TRAP assay; assay type: subcellular
[23] = molecular target: Telomerase reverse transcriptase (Homo sapiens) (UniProt O14746); test: Inhibition of telomerase activity in human HeLa cell lysate at 0.156 to 2.5 uM in presence of [32P]-labeled template primer by TRAP assay; assay type: subcellular
[24] = molecular target: Telomerase reverse transcriptase (Homo sapiens) (UniProt O14746); test: Inhibition of telomerase activity in human HeLa cell lysate at 0.078 uM in presence of [32P]-labeled template primer by TRAP assay; assay type: subcellular
HeLa [25] = test: Inhibition of DNA polymerase activity in human HeLa cell lysate at 5 uM in presence of [32P]-labeled template primer by TRAP assay; assay type: subcellular
[26] = molecular target: Telomerase reverse transcriptase (Homo sapiens) (UniProt O14746); test: Inhibition of telomerase activity in human HeLa cell lysate at 6.25 uM in presence of [32P]-labeled template primer by TRAP assay relative to control; assay type: subcellular
[27] = molecular target: Telomerase reverse transcriptase (Homo sapiens) (UniProt O14746); test: Inhibition of telomerase activity in human HeLa cell lysate at 5 uM in presence of [32P]-labeled template primer by TRAP assay; assay type: subcellular
HeLa [28] = test: Inhibition of DNA polymerase activity in human HeLa cell lysate at 6.25 uM in presence of [32P]-labeled template primer by TRAP assay relative to control; assay type: subcellular
HeLa [29] = test: Inhibition of DNA polymerase activity in human HeLa cell lysate at <=2.5 uM in presence of [32P]-labeled template primer by TRAP assay; assay type: subcellular
[30] = molecular target: Telomerase reverse transcriptase (Homo sapiens) (UniProt O14746); test: Inhibition of telomerase activity in human HeLa cell lysate at 0.039 to 10 uM in presence of [32P]-labeled template primer by TRAP assay; assay type: subcellular
[31] = molecular target: Telomerase reverse transcriptase (Homo sapiens) (UniProt O14746); test: Inhibition of telomerase activity in human HeLa cell lysate at <=2.5 uM in presence of [32P]-labeled template primer by TRAP assay; assay type: subcellular

Chain of Telomerase reverse transcriptase (Homo sapiens) (O14746 whole entry): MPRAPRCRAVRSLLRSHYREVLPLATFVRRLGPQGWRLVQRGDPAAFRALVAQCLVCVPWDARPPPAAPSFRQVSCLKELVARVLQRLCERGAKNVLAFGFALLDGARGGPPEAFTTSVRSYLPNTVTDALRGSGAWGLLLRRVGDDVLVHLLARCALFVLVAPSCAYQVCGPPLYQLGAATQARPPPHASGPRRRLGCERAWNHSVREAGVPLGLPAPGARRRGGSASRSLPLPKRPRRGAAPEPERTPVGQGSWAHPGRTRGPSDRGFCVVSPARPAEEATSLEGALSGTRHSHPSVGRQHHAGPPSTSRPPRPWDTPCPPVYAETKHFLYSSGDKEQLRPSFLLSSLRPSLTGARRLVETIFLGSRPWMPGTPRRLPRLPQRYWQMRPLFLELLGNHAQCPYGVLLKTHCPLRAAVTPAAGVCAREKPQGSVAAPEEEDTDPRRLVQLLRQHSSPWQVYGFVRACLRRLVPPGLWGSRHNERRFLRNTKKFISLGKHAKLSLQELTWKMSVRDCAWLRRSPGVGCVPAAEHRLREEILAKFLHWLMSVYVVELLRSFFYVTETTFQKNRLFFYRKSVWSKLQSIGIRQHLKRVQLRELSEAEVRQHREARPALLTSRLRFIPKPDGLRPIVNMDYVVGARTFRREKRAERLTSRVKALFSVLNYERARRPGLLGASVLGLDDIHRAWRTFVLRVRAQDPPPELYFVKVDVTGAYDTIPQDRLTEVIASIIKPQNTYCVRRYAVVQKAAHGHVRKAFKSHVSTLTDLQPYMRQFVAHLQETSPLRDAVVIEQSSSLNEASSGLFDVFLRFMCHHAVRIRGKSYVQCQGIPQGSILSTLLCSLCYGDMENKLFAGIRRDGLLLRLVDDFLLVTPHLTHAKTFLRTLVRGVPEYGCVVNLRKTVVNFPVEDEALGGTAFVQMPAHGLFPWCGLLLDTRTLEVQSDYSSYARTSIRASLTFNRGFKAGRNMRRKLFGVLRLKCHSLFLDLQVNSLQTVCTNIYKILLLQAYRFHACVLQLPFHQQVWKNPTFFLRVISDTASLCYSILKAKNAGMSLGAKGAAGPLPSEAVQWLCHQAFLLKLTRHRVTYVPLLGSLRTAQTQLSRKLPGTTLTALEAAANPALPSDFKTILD

| Activity (Quadruplex DNA [3]) | inhibition [4] | inhibition (HeLa [5]) | Tm (Quadruplex DNA [6]) | Tm (Quadruplex DNA [7]) | Ratio [10] | fold change (FC) (Quadruplex DNA [12]) | SMILES | other results |
| --- | --- | --- | --- | --- | --- | --- | --- | --- |
| – | – | – | – | – | – | – | NCCCNCCCCNCCCN | inhibition [1]: inactive; inhibition (HeLa [2]): inactive |
| Active | inactive | inactive | 56 °C | 58.7 °C | – | – | C[n+]1c(/C=C2\C=CN(CC(=O)NCCOCCN)c3ccccc32)sc2ccccc21 | – |
| Active | inactive | inactive | 57 °C | 59.4 °C | – | – | C[n+]1c(/C=C2\C=CN(CC(=O)NCCOCCOCCOCCN)c3ccccc32)sc2ccccc21 | – |
| – | Active | inactive | 62.5 °C | 69.4 °C | 0.79 | 200 | C[n+]1c(/C=C2\C=CN(CC(=O)NCCN3CCCC3)c3ccccc32)sc2ccccc21 | inhibition (HeLa [8]): inactive; EC [9]: 2.5 µM; Kd (dsDNA): 380 nM; ΔTm (Quadruplex DNA [11]): 7.1 °C; KdH (Quadruplex DNA [13]): 0.3 µM; KdL (Quadruplex DNA [13]): 1.77 µM |
| Active | Active | inactive | 58.5 °C | 62.4 °C | – | – | C[n+]1c(/C=C2\C=CN(CC(=O)NCCNCCNCCN)c3ccccc32)sc2ccccc21 | inhibition [14]: Active; inhibition (HeLa [15]): inactive; inhibition [16]: Active; inhibition [17]: inactive |
| Active | inactive | inactive | 57.5 °C | 59.2 °C | – | – | C[n+]1c(/C=C2\C=CN(CC(=O)NCCN)c3ccccc32)sc2ccccc21 | – |
| Active | Active | inactive | 60.5 °C | 59.7 °C | 2.7 | 200 | C[n+]1c(/C=C2\C=CN(CC(=O)NCCOCCN3CCCC3)c3ccccc32)sc2ccccc21 | Kd (dsDNA): 610 nM; Kd (Quadruplex DNA [13]): 1650 nM |
| Active | Active | inactive | 60.5 °C | 64.9 °C | 3.57 | 200 | C[n+]1c(/C=C2\C=CN(CC(=O)NCCOCCN3CCCCC3)c3ccccc32)sc2ccccc21 | Kd (dsDNA): 710 nM; Kd (Quadruplex DNA [13]): 2180 nM |
| Active | inactive | inactive | 56.5 °C | 60.2 °C | – | – | C[n+]1c(/C=C2\C=CN(CC(=O)NCCCN)c3ccccc32)sc2ccccc21 | – |
| Active | Active | inactive | 60 °C | 62.3 °C | – | – | C[n+]1c(/C=C2\C=CN(CC(=O)NCCCCCCN)c3ccccc32)sc2ccccc21 | – |
| – | – | – | – | – | – | – | CN1C=C/C(=C\c2sc3ccccc3[n+]2C)c2ccccc21 | Kd (dsDNA): 400 nM; Kd (Quadruplex DNA [13]): 870 nM |
| – | – | – | – | – | – | – | C[n+]1ccc(-c2c3nc(c(-c4cc[n+](C)cc4)c4ccc([nH]4)c(-c4cc[n+](C)cc4)c4ccc([nH]4)c(-c4cc[n+](C)cc4)c4nc2C=C4)C=C3)cc1 | inhibition (HeLa [18]): Active; inhibition [19]: Active |
| – | Active | – | 60 °C | 63.4 °C | 2.18 | 340 | CN1/C(=C/c2cc[n+](C)c3ccccc23)Sc2ccccc21 | – |
| – | inactive | inactive | 57.1 °C | 54 °C | – | – | C[n+]1c(/C=C2\C=CN(CC(=O)O)c3ccccc32)sc2ccccc21 | – |
| Active | Active | inactive | 61.5 °C | 60.5 °C | 2.8 | 200 | C[n+]1c(/C=C2\C=CN(CC(=O)NCCCNCCCN)c3ccccc32)sc2ccccc21 | inhibition (HeLa [20]): Active; inhibition [14]: Active; inhibition (HeLa [15]): inactive; inhibition [16]: Active; KdH (dsDNA): 0.05 µM; KdL (dsDNA): 0.92 µM; inhibition [17]: Active; KdH (Quadruplex DNA [13]): 0.14 µM; KdL (Quadruplex DNA [13]): 0.95 µM |
| – | – | – | – | – | – | – | C/C(=C\C(=O)Nc1ccccc1C(=O)O)c1ccc2ccccc2c1 | inhibition [19]: Active |
| – | – | – | 65 °C | 71 °C | 2.33 | 200 | C[n+]1c(/C=C2\C=CN(CC(=O)NCCCNCCCCNCCCN)c3ccccc32)sc2ccccc21 | Ratio (Quadruplex DNA [21]): 12.4; inhibition (HeLa [20]): 100%; inhibition [14]: 100%; inhibition (HeLa [22]): inactive; inhibition [23]: Active; inhibition [24]: inactive; inhibition (HeLa [25]): Active; inhibition [26]: 100%; KdH (dsDNA): 0.03 µM; KdL (dsDNA): 0.65 µM; ΔTm (Quadruplex DNA [11]): 6.9 °C; inhibition [27]: 100%; KdH (Quadruplex DNA [13]): 0.07 µM; KdL (Quadruplex DNA [13]): 1.73 µM; inhibition (HeLa [28]): 100% |
| Active | Active | inactive | 56 °C | 64 °C | 4.18 | 200 | C[n+]1c(/C=C2\C=CN(CC(=O)NCCN3CCCCC3)c3ccccc32)sc2ccccc21 | inhibition (HeLa [8]): inactive; EC [9]: 5 µM; Kd (dsDNA): 270 nM; Kd (Quadruplex DNA [13]): 1130 nM |
| – | – | – | – | – | – | – | CN(C)c1ccc(Nc2c3ccc(NC(=O)CCN4CCCC4)cc3nc3cc(NC(=O)CCN4CCCC4)ccc23)cc1 | inhibition (HeLa [29]): inactive; inhibition (HeLa [20]): Active; inhibition [14]: Active; inhibition [30]: Active; inhibition [31]: Active |
| – | – | – | – | – | – | – | O=C1c2ccc3c4ccc5c6c(ccc(c7ccc(c2c37)C(=O)N1CCN1CCCCC1)c64)C(=O)N(CCN1CCCCC1)C5=O | inhibition [14]: inactive |
